Results on eight compounds are retold here after patent US12661410B2, “Compounds for targeted degradation of RET” (C4 Therapeutics, Inc., priority 2020, dated 2026).

Numbering of substitutions follows the chain as printed. Where two headings read alike, the source gives them in different places. Where only a bound is given, the exact number is not on record here.

One assay addresses T1, RET (658-1114) (Homo sapiens, UniProt P07949).
T1 construct: 658-1114; expressed in transfected cells; host or cells: 293T.144 (293T cells, generated in-house)
T1 sequence (P07949 658-1114): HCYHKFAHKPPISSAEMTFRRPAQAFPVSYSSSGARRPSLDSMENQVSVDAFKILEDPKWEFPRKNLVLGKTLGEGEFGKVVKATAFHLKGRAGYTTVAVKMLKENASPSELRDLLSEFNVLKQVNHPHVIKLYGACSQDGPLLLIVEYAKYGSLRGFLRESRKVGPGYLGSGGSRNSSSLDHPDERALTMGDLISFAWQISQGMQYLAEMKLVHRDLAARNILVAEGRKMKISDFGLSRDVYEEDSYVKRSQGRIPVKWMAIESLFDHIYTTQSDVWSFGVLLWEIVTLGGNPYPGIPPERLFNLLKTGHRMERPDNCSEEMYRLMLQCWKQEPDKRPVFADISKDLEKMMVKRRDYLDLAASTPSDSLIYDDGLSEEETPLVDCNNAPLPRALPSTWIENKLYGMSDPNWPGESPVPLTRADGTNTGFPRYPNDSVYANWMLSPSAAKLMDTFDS
The experiment in a line: HiBiT-Degradation, RET wild-type degradation assay (Nano-Glo HiBiT Lytic), 293T.144 cells. Format: cell-based. The following applies: RET wild-type; for DC50 / Emax: 6.0 hours; for DC50: read-out: HiBiT-Degradation 293T.144 RET (658-1114) 6.0 hours (DC50); for Emax: read-out: HiBiT-Degradation 293T.144 RET (658-1114) 6.0 hours (Emax). In outline:
(§1)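 6 h treatment, 293T.144 (WT) / 293T.165 (G810R) cells ectopically expressing HiBiT-fused RET KD; 11-pt half-log dilution, top 10 μM, n=2. Nano-Glo HiBiT lytic detection, luminescence. Output: DC50, Emax (% protein remaining).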

A further assay has as its target T2, RET(KD: 658-1114 G810R) (Homo sapiens, UniProt P07949, G810R).
T2 construct: 658-1114; expressed in transfected cells; host or cells: 293T.165 (293T cells, generated in-house)
T2 sequence (P07949 658-1114 G810R): T1 sequence (P07949 658-1114) with G153R
The assay can be described thus: HiBiT-Degradation, RET G810R degradation assay (Nano-Glo HiBiT Lytic), 293T.165 cells. Format: cell-based. The following applies: for Emax / DC50: 6.0 hours. In outline: as §1

The mark [1] stands for this setting: % remaining protein, read-out: 293T.165 RET(KD: 658-1114 G810R) 6.0 hours (Emax).
Setting [2] is: half-maximal degradation concentration, read-out: 293T.165 RET(KD: 658-1114 G810R) 6.0 hours (DC50).
Where [3] appears, read: RET G810R, read-out: HiBiT-Degradation 293T.165 RET(KD: 658-1114 G810R) 6.0 hours (DC50).
Where [4] appears, read: RET G810R, read-out: HiBiT-Degradation 293T.165 RET(KD: 658-1114 G810R) 6.0 hours (Emax).

What is called DC50 is the concentration at which degradation of the target reaches its halfway point. The term Emax denotes the greatest response seen or fitted, relative to the assay's reference. In the case of `COc1ccnc(CN2C3CC2CN(c2ccc(-c4cc(-c5cnn(C6CCN(C(=O)CN7CCC(c8ccc(NC9CCC(=O)NC9=O)cc8F)CC7)CC6)c5)cn5ncc(C#N)c45)cn2)C3)c1` (stereo not shown) [Compound 71, 6-[1-[1-[2-[4-[4-[(2,6-dioxo-3-piperidyl)amino]-2-fluoro-phenyl]-1-piperidyl]acetyl]-4-piperidyl]pyrazol-4-yl]-4-[6-[6-[(4-methoxy-2-pyridyl)methyl]-3,6-diazabicyclo[3.1.1]heptan-3-yl]-3-pyridyl]pyrazolo[1,5-a]pyridine-3-carbonitrile], the “HiBiT-Degradation 293T.144 RET (658-1114) 6.0 hours (IP) [nM]” value (shortened to “HiBiT-Degradation 293T.144 RET”) on RET (658-1114) is listed as “++++ (< 50 nM = ++++)”. The DC50 is under 50 nM on RET (658-1114), under 100 nM at RET(KD: 658-1114 G810R) (setting [2]) and under 100 nM at RET(KD: 658-1114 G810R) (setting [3]). Also, the Emax at RET (658-1114), on RET(KD: 658-1114 G810R) (setting [1]) and on RET(KD: 658-1114 G810R) (setting [4]) was under 30% in each case. Also, at RET(KD: 658-1114 G810R) (RET G810R), the “HiBiT-Degradation 293T.165 RET(KD: 658-1114 G810R) 6.0 hours (IP) [nM]” value is “++++ (< 50 nM = ++++)”.
Consider `N#Cc1cnn2cc(-c3cnn(C4CCN(C(=O)CN5CCC(c6ccc(NC7CCC(=O)NC7=O)cc6F)CC5)CC4)c3)nc(-c3ccc(N4CCC(Cc5ccccn5)CC4)nc3)c12` (stereo not shown) [Compound 72, 6-[1-[1-[2-[4-[4-[(2,6-dioxo-3-piperidyl)amino]-2-fluoro-phenyl]-1-piperidyl]acetyl]-4-piperidyl]pyrazol-4-yl]-4-[6-[4-(2-pyridylmethyl)-1-piperidyl]-3-pyridyl]pyrazolo[1,5-a]pyrazine-3-carbonitrile], for which, on RET (658-1114), the “HiBiT-Degradation 293T.144 RET” value is listed as “++++ (< 50 nM = ++++)”. For the same compound, the DC50 on RET (658-1114), on RET(KD: 658-1114 G810R) (setting [2]) and at RET(KD: 658-1114 G810R) (setting [3]) was under 50 nM throughout. For the same compound, the Emax on RET (658-1114) is under 30%; at RET(KD: 658-1114 G810R) (setting [1]) it was under 50%; at RET(KD: 658-1114 G810R) (setting [4]) it was under 50%. In addition, the “HiBiT-Degradation 293T.165 RET(KD: 658-1114 G810R) 6.0 hours (IP) [nM]” value at RET(KD: 658-1114 G810R) (RET G810R) was “++++ (< 50 nM = ++++)”.
Consider `N#Cc1cnn2cc(-c3cnn(C4CCN(C(=O)CN5CCC(c6ccc(NC7CCC(=O)NC7=O)cc6F)CC5)CC4)c3)cc(-c3ccc(N4CC5CC(C4)N5Cc4ccccn4)nc3)c12` (stereo not shown) [Compound 73, 6-[1-[1-[2-[4-[4-[(2,6-dioxo-3-piperidyl)amino]-2-fluoro-phenyl]-1-piperidyl]acetyl]-4-piperidyl]pyrazol-4-yl]-4-[6-[6-(2-pyridylmethyl)-3,6-diazabicyclo[3.1.1]heptan-3-yl]-3-pyridyl]pyrazolo[1,5-a]pyridine-3-carbonitrile], for which the “HiBiT-Degradation 293T.144 RET” value at RET (658-1114) is listed as “++++ (< 50 nM = ++++)”. Also, the DC50 on RET (658-1114), at RET(KD: 658-1114 G810R) (setting [2]) and at RET(KD: 658-1114 G810R) (setting [3]) was under 50 nM each time. The Emax at RET (658-1114), on RET(KD: 658-1114 G810R) (setting [1]) and on RET(KD: 658-1114 G810R) (setting [4]) was under 30% throughout. In addition, the “HiBiT-Degradation 293T.165 RET(KD: 658-1114 G810R) 6.0 hours (IP) [nM]” value on RET(KD: 658-1114 G810R) (RET G810R) was “++++ (< 50 nM = ++++)”.
`N#Cc1cnn2cc(-c3ccc(N4CCN(C(=O)CN5CCC(c6ccc(NC7CCC(=O)NC7=O)cc6)CC5)CC4)cc3)cc(-c3ccc(N4CCN(C(=O)Cc5ccc(F)cn5)CC4)nc3)c12` (stereo not shown) [Compound 74, 6-[4-[4-[2-[4-[4-[(2,6-dioxo-3-piperidyl)amino]phenyl]-1-piperidyl]acetyl]piperazin-1-yl]phenyl]-4-[6-[4-[2-(5-fluoro-2-pyridyl)acetyl]piperazin-1-yl]-3-pyridyl]pyrazolo[1,5-a]pyridine-3-carbonitrile]: the “HiBiT-Degradation 293T.144 RET” value at RET (658-1114) is given as “++++ (< 50 nM = ++++)”. Moreover, the DC50 on RET (658-1114), on RET(KD: 658-1114 G810R) (setting [2]) and on RET(KD: 658-1114 G810R) (setting [3]) was under 50 nM in each case. The Emax on RET (658-1114), at RET(KD: 658-1114 G810R) (setting [1]) and on RET(KD: 658-1114 G810R) (setting [4]) was under 30% each time. In addition, at RET(KD: 658-1114 G810R) (RET G810R), the “HiBiT-Degradation 293T.165 RET(KD: 658-1114 G810R) 6.0 hours (IP) [nM]” value was “++++ (< 50 nM = ++++)”.
`N#Cc1cnn2cc(-c3cnn(C4CC5(C4)CN(C(=O)CN4CCC(c6ccc(NC7CCC(=O)NC7=O)cc6F)CC4)C5)c3)cc(-c3ccc(N4CCN(Cc5ccccn5)CC4)nc3)c12` (stereo not shown) [Compound 76, 6-[1-[2-[2-[4-[4-[(2,6-dioxo-3-piperidyl)amino]-2-fluoro-phenyl]-1-piperidyl]acetyl]-2-azaspiro[3.3]heptan-6-yl]pyrazol-4-yl]-4-[6-[4-(2-pyridylmethyl)piperazin-1-yl]-3-pyridyl]pyrazolo[1,5-a]pyridine-3-carbonitrile]: at RET (658-1114), the “HiBiT-Degradation 293T.144 RET” value is “++++ (< 50 nM = ++++)”. The DC50 was under 50 nM at RET (658-1114), under 100 nM on RET(KD: 658-1114 G810R) (setting [2]) and under 100 nM at RET(KD: 658-1114 G810R) (setting [3]). The Emax at RET (658-1114), at RET(KD: 658-1114 G810R) (setting [1]) and at RET(KD: 658-1114 G810R) (setting [4]) was under 30% in each case. For the same compound, at RET(KD: 658-1114 G810R) (RET G810R), the “HiBiT-Degradation 293T.165 RET(KD: 658-1114 G810R) 6.0 hours (IP) [nM]” value is on record as “+++ (<100 nM = +++)”.
Take `N#Cc1cnn2cc(-c3cnn(C4CCN(C(=O)NC5CCN(c6ccc(NC7CCC(=O)NC7=O)cc6F)CC5)CC4)c3)cc(-c3ccc(N4CCN(Cc5ccccn5)CC4)nc3)c12` (stereo not shown) [Compound 77, 4-[4-[3-cyano-4-[6-[4-(2-pyridylmethyl)piperazin-1-yl]-3-pyridyl]pyrazolo[1,5-a]pyridin-6-yl]pyrazol-1-yl]-N-[1-[4-[(2,6-dioxo-3-piperidyl)amino]-2-fluoro-phenyl]-4-piperidyl]piperidine-1-carboxamide]: at RET (658-1114), the “HiBiT-Degradation 293T.144 RET” value is recorded as “++++ (< 50 nM = ++++)”. Besides, the DC50 at RET (658-1114) is under 50 nM; on RET(KD: 658-1114 G810R) (setting [2]), under 100 nM; at RET(KD: 658-1114 G810R) (setting [3]), under 100 nM. In addition, the Emax was under 30% on RET (658-1114), under 50% on RET(KD: 658-1114 G810R) (setting [1]) and under 50% on RET(KD: 658-1114 G810R) (setting [4]). The “HiBiT-Degradation 293T.165 RET(KD: 658-1114 G810R) 6.0 hours (IP) [nM]” value at RET(KD: 658-1114 G810R) (RET G810R) is given as “++++ (< 50 nM = ++++)”.
In the case of `COCC1(Cc2ccccn2)CCN(c2ccc(-c3nc(-c4cnn(C5CCN(C(=O)CN6CCC(c7ccc(NC8CCC(=O)NC8=O)cc7F)CC6)CC5)c4)cn4ncc(C#N)c34)cn2)CC1` (stereo not shown) [Compound 78, 6-[1-[1-[2-[4-[4-[(2,6-dioxo-3-piperidyl)amino]-2-fluoro-phenyl]-1-piperidyl]acetyl]-4-piperidyl]pyrazol-4-yl]-4-[6-[4-(methoxymethyl)-4-(2-pyridylmethyl)-1-piperidyl]-3-pyridyl]pyrazolo[1,5-a]pyrazine-3-carbonitrile], the “HiBiT-Degradation 293T.144 RET” value on RET (658-1114) is listed as “++++ (< 50 nM = ++++)”. The DC50 on RET (658-1114) was under 50 nM; on RET(KD: 658-1114 G810R) (setting [2]), under 100 nM; on RET(KD: 658-1114 G810R) (setting [3]) it was under 100 nM. Also, the Emax at RET (658-1114), on RET(KD: 658-1114 G810R) (setting [1]) and at RET(KD: 658-1114 G810R) (setting [4]) was under 30% each time. Further, the “HiBiT-Degradation 293T.165 RET(KD: 658-1114 G810R) 6.0 hours (IP) [nM]” value at RET(KD: 658-1114 G810R) (RET G810R) is given as “++++ (< 50 nM = ++++)”.
Turning to `CCC1(C(=O)NC2CCC2)CCN(c2ccc(-c3nc(-c4cnn(C5CCN(C(=O)CC6(O)CCN(c7ccc(NC8CCC(=O)NC8=O)cc7F)CC6)CC5)c4)cn4ncc(C#N)c34)cn2)CC1` (stereo not shown) [Compound 81, 1-[5-[3-cyano-6-[1-[1-[2-[1-[4-[(2,6-dioxo-3-piperidyl)amino]-2-fluoro-phenyl]-4-hydroxy-4-piperidyl]acetyl]-4-piperidyl]pyrazol-4-yl]pyrazolo[1,5-a]pyrazin-4-yl]-2-pyridyl]-N-cyclobutyl-4-ethyl-piperidine-4-carboxamide], the “HiBiT-Degradation 293T.144 RET” value on RET (658-1114) is listed as “++++ (< 50 nM = ++++)”. Besides, the DC50 on RET (658-1114), at RET(KD: 658-1114 G810R) (setting [2]) and at RET(KD: 658-1114 G810R) (setting [3]) was under 50 nM each time. The Emax on RET (658-1114), on RET(KD: 658-1114 G810R) (setting [1]) and at RET(KD: 658-1114 G810R) (setting [4]) was under 30% in each case. In addition, the “HiBiT-Degradation 293T.165 RET(KD: 658-1114 G810R) 6.0 hours (IP) [nM]” value at RET(KD: 658-1114 G810R) (RET G810R) was “++++ (< 50 nM = ++++)”.
